Measured values from patent US6313090A, “Methods for treating parasitic infection using thiopeptides” (The United States of America as represented by the …, priority 2000, dated 2001).
Like-named read-outs stand apart in the source and are kept apart here.

Test system: C. parvum GCH1 oocysts
Test: Intact C. parvum oocyst assay on MDBKF5D2 cell monolayers, immunofluorescence
Assay type: cell-based
Conditions: for inhibition at 800 µg/mL / inhibition at 100 µg/mL / inhibition at 200 µg/mL / inhibition at 400 µg/mL / inhibition at 1 µg/mL / inhibition at 10 µg/mL / inhibition at 0.1 µg/mL: Cryptosporidium parvum
Experimental: In vitro doses of drugs. Thiostrepton (Calbiochem) was dissolved in sterile complete Dulbecco's Modified Eagle Medium (DMEM) supplemented with dimethyl sulfoxide (DMSO) at 0.2% and tested at concentrations of 800, 400, 200, and 100, 10, 1 and 0.1 μg/ml.
(§1) Intact C. parvum oocyst asset 3.0×10^4 C. parvum GCH1 oocysts per well were incubated in the above-mentioned concentrations of drug at 37° C. (8% CO2) on confluent MDBKF5D2 cell monolayers in 96 well microtiter plates. The level of infection in each well was determined and analyzed by immunofluorescence assay at 48 hours, using C. parvum sporozoite rabbit anti-serum (0.1%) and fluorescein-conjugated goat anti-rabbit antibody (1.0%). Percent inhibition was calculated by subtracting the mean parasite/drug from the mean parasitelmedium, divided by the mean parasite/medium, all of which was multiplied by 100. The analysis was performed using MCID and an inverted microscope.
In vitro doses of drugs. Thiostrepton (Calbiochem) and Phavic (NTZ) were dissolved in sterile complete Dulbecco's Modified Eagle Medium (DMEM) supplemented with dimethyl sulfoxide (DMSO) at 0.2% and tested at concentrations of 800, 400, 200, and 100 μg/ml. NTZ was tested at concentrations of 100, 10, 1 and 0.1 μg/ml. Paromomycin (Sigma) was dissolved in DMEM and tested at concentrations of 2000, 1000, 500 and 250 μg/ml.
as §1, with “assay .” for “asset”, “plates. For some monolayers, the oocysts were incubated in DMEM on the cell monolayers for four hours, at which time the monolayers were washed and then drug was added to the wells.” for “plates.”, “parasite/medium,” for “parasitelmedium,”
In vitro doses of drugs. Thiostrepton (Calbiochem), Phavic (NTZ) were dissolved in sterile complete Dulbecco's Modified Eagle Medium (DMEM) supplemented with dimethyl sulfoxide (DMSO) at 0.2%. Thiostrepton was tested at a concentration of 800 μg/ml. NTZ was tested at a concentration of 10 μg/ml. Paromomycin was dissolved in DMEM and tested at 2000 μg/ml. Cell monolayers were infected and washed, followed by the addition of drug at time intervals of 0, 2, 4, 8 and 24 hours.
as §1, with “assay.” for “asset”, “analyze” for “analyzed”, “parasite/medium,” for “parasitelmedium,”

C=C(NC(=O)C(=C)NC(=O)c1csc(C2=N[C@@H]3c4csc(n4)[C@H]4NC(=O)c5csc(n5)[C@H]([C@](C)(O)[C@@H](C)O)NC(=O)[C@H]5CSC(=N5)/C(=C/C)NC(=O)[C@H]([C@@H](C)O)NC(=O)c5csc(n5)[C@]3(CC2)NC(=O)[C@H](C)NC(=O)C(=C)NC(=O)[C@H](C)NC(=O)[C@H]([C@@H](C)CC)N[C@@H]2C=Cc3c([C@H](C)O)cc(nc3[C@H]2O)C(=O)O[C@@H]4C)n1)C(N)=O [Thiostrepton, thiostrepton]
inhibition at 800 µg/mL (0 h, read-out: Inhibition Percent, Table 5, 800 μg/ml, drug added at 0 hrs): 91.2%
inhibition at 800 µg/mL (0 h, read-out: Inhibition Score, Table 5, 800 μg/ml, drug added at 0 hrs): 91 to 100%
inhibition at 800 µg/mL (2 h, read-out: Inhibition Percent, Table 5, 800 μg/ml, drug added at 2 hrs): 91.8%
inhibition at 800 µg/mL (2 h, read-out: Inhibition Score, Table 5, 800 μg/ml, drug added at 2 hrs): 91 to 100%
inhibition at 100 µg/mL (4 h, read-out: Inhibition Percent, Table 4 Washed at 4 hours, 100 μg/ml): 61%
inhibition at 200 µg/mL (4 h, read-out: Inhibition Percent, Table 4 Washed at 4 hours, 200 μg/ml): 78.7%
inhibition at 400 µg/mL (4 h, read-out: Inhibition Percent, Table 4 Washed at 4 hours, 400 μg/ml): 88.2%
inhibition at 800 µg/mL (4 h, read-out: Inhibition Percent, Table 4 Washed at 4 hours, 800 μg/ml): 87.4%
inhibition at 800 µg/mL (4 h, read-out: Inhibition Percent, Table 5, 800 μg/ml, drug added at 4 hrs): 84.5%
inhibition at 100 µg/mL (4 h, read-out: Inhibition Score, Table 4 Washed at 4 hours, 100 μg/ml): 56 to 70%
inhibition at 200 µg/mL (4 h, read-out: Inhibition Score, Table 4 Washed at 4 hours, 200 μg/ml): 71 to 90%
inhibition at 400 µg/mL (4 h, read-out: Inhibition Score, Table 4 Washed at 4 hours, 400 μg/ml): 71 to 90%
inhibition at 800 µg/mL (4 h, read-out: Inhibition Score, Table 4 Washed at 4 hours, 800 μg/ml): 71 to 90%
inhibition at 800 µg/mL (4 h, read-out: Inhibition Score, Table 5, 800 μg/ml, drug added at 4 hrs): 71 to 90%
inhibition at 800 µg/mL (8 h, read-out: Inhibition Percent, Table 5, 800 μg/ml, drug added at 8 hrs): 84.9%
inhibition at 800 µg/mL (8 h, read-out: Inhibition Score, Table 5, 800 μg/ml, drug added at 8 hrs): 71 to 90%
inhibition at 800 µg/mL (24 h, read-out: Inhibition Percent, Table 5, 800 μg/ml, drug added at 24 hrs): 75%
inhibition at 800 µg/mL (24 h, read-out: Inhibition Score, Table 5, 800 μg/ml, drug added at 24 hrs): 71 to 90%
inhibition at 1 µg/mL (read-out: Inhibition Percent, Table 1, 1 μg/ml): < 0%
inhibition at 10 µg/mL (read-out: Inhibition Percent, Table 1, 10 μg/ml): 12.4%
inhibition at 100 µg/mL (read-out: Inhibition Percent, Table 1, 100 μg/ml): 29.4%
inhibition at 0.1 µg/mL (read-out: Inhibition Percent, Table 1, .1 μg/ml): < 0%
inhibition at 100 µg/mL (read-out: Inhibition Percent, Table 2, 100 μg/ml): 22.7%
inhibition at 200 µg/mL (read-out: Inhibition Percent, Table 2, 200 μg/ml): 51.8%
inhibition at 400 µg/mL (read-out: Inhibition Percent, Table 2, 400 μg/ml): 72.6%
inhibition at 800 µg/mL (read-out: Inhibition Percent, Table 2, 800 μg/ml): 87.8%
inhibition at 100 µg/mL (read-out: Inhibition Percent, Table 3 Unwashed, 100 μg/ml): 35.4%
inhibition at 200 µg/mL (read-out: Inhibition Percent, Table 3 Unwashed, 200 μg/ml): 68.2%
inhibition at 400 µg/mL (read-out: Inhibition Percent, Table 3 Unwashed, 400 μg/ml): 87.4%
inhibition at 800 µg/mL (read-out: Inhibition Percent, Table 3 Unwashed, 800 μg/ml): 91.4%
inhibition at 100 µg/mL (read-out: Inhibition Percent, Table 6, 100 μg/ml): 36.5%
inhibition at 200 µg/mL (read-out: Inhibition Percent, Table 6, 200 μg/ml): 65.7%
inhibition at 400 µg/mL (read-out: Inhibition Percent, Table 6, 400 μg/ml): 79%
inhibition at 800 µg/mL (read-out: Inhibition Percent, Table 6, 800 μg/ml): 83.7%
inhibition at 1 µg/mL (read-out: Inhibition Score, Table 1, 1 μg/ml): 0 to 30%
inhibition at 10 µg/mL (read-out: Inhibition Score, Table 1, 10 μg/ml): 0 to 30%
inhibition at 100 µg/mL (read-out: Inhibition Score, Table 1, 100 μg/ml): 0 to 30%
inhibition at 0.1 µg/mL (read-out: Inhibition Score, Table 1, .1 μg/ml): 0 to 30%
inhibition at 100 µg/mL (read-out: Inhibition Score, Table 2, 100 μg/ml): 0 to 30%
inhibition at 200 µg/mL (read-out: Inhibition Score, Table 2, 200 μg/ml): 31 to 55%
inhibition at 400 µg/mL (read-out: Inhibition Score, Table 2, 400 μg/ml): 71 to 90%
inhibition at 800 µg/mL (read-out: Inhibition Score, Table 2, 800 μg/ml): 71 to 90%
inhibition at 100 µg/mL (read-out: Inhibition Score, Table 3 Unwashed, 100 μg/ml): 31 to 55%
inhibition at 200 µg/mL (read-out: Inhibition Score, Table 3 Unwashed, 200 μg/ml): 56 to 70%
inhibition at 400 µg/mL (read-out: Inhibition Score, Table 3 Unwashed, 400 μg/ml): 71 to 90%
inhibition at 800 µg/mL (read-out: Inhibition Score, Table 3 Unwashed, 800 μg/ml): 91 to 100%
inhibition at 100 µg/mL (read-out: Inhibition Score, Table 6, 100 μg/ml): 31 to 55%
inhibition at 200 µg/mL (read-out: Inhibition Score, Table 6, 200 μg/ml): 56 to 70%
inhibition at 400 µg/mL (read-out: Inhibition Score, Table 6, 400 μg/ml): 71 to 90%
inhibition at 800 µg/mL (read-out: Inhibition Score, Table 6, 800 μg/ml): 71 to 90%
Parasite Count (Table 1, 1 μg/ml): 1193.19
Parasite Count (Table 1, 10 μg/ml): 909.25
Parasite Count (Table 1, 100 μg/ml): 732.31
Parasite Count (Table 1, .1 μg/ml): 1052.13
Parasite Count (Table 2, 100 μg/ml): 943.31
Parasite Count (Table 2, 200 μg/ml): 587.81
Parasite Count (Table 2, 400 μg/ml): 334.06
Parasite Count (Table 2, 800 μg/ml): 149.25
Parasite Count (Table 3 Unwashed, 100 μg/ml): 795.63
Parasite Count (Table 3 Unwashed, 200 μg/ml): 391.19
Parasite Count (Table 3 Unwashed, 400 μg/ml): 154.88
Parasite Count (Table 3 Unwashed, 800 μg/ml): 106.06
Parasite Count (Table 4 Washed at 4 hours, 100 μg/ml): 543.88
Parasite Count (Table 4 Washed at 4 hours, 200 μg/ml): 297.19
Parasite Count (Table 4 Washed at 4 hours, 400 μg/ml): 164.31
Parasite Count (Table 4 Washed at 4 hours, 800 μg/ml): 176.31
Parasite Count (Table 5, 800 μg/ml, drug added at 0 hrs): 112.44
Parasite Count (Table 5, 800 μg/ml, drug added at 2 hrs): 104.19
Parasite Count (Table 5, 800 μg/ml, drug added at 4 hrs): 196.81
Parasite Count (Table 5, 800 μg/ml, drug added at 8 hrs): 192.56
Parasite Count (Table 5, 800 μg/ml, drug added at 24 hrs): 318.25
Parasite Count (Table 6, 100 μg/ml): 871.25
Parasite Count (Table 6, 200 μg/ml): 470.69
Parasite Count (Table 6, 400 μg/ml): 288.13
Parasite Count (Table 6, 800 μg/ml): 223.13
activity against C. parvum in vitro (concentrations of 200 and above, Tables 1 and 2): good activity
effectiveness compared with PRM (in vitro, summary statement): more effective than PRM at about one-fifth the dose
activity when drug is added 24 hours after infection (intracellular stages only): still highly inhibitory
